The record followed here is paper PMC8041284, “Tunable Methacrylamides for Covalent Ligand Directed Release Chemistry” (Journal of the American Chemical Society, 2021).

In one assay the target is BTK (Homo sapiens, UniProt Q06187). In words: biochemical. Conditions: read-out: BTK inhibition (%).
BTK, sequence (Q06187 402-655 limits assumed): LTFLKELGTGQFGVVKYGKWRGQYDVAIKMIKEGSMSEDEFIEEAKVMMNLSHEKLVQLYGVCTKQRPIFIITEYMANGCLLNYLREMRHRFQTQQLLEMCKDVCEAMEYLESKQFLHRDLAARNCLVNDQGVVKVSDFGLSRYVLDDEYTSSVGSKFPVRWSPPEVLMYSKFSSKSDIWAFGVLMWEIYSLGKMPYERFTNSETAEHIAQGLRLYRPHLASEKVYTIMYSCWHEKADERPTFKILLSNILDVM
As to `CC(C)(C)[C@]1(O)C[C@@H]2OC(=O)C[C@@]23C(=O)O[C@@H]2OC(=O)[C@H](O)[C@]213` [PCM-0094827], the inhibition – broadly, the change of the read-out against control, counted positive when it falls – at 10 µM is -6.2%.

In the case of `C[C@]12CCC(=O)C[C@@H]1CC[C@@H]1[C@@H]2CC[C@]2(C)[C@@H](O)CC[C@@H]12` [PCM-0214865], the inhibition at 10 µM is -21%.

The assay is the same for the next values; noted with them: read-out: BTK inhibition (%), 0.75 uM BTK, […] probe 3l, 15 min preincubation.
On to `CC(C)CCN1c2nc(Nc3cc(F)c(O)c(F)c3)ncc2N(C)C(=O)C1C` (centres unmarked) [PCM-0095469], for which the inhibition at 10 µM was 48.3%.

For the compound `O=C(NOCC(O)CO)c1cc(Br)c(F)c(F)c1Nc1ccc(I)cc1F` (centres unmarked) [PCM-0095128], the inhibition at 10 µM was -19.3%.

Consider `CN1CCC(COc2cnc(-c3cccc(Cn4nc(-c5cccc(C#N)c5)ccc4=O)c3)nc2)CC1` [PCM-0215322], for which the inhibition at 10 µM was 22.1%.

In the case of `O=C(c1cccc(Br)c1)N1CCC(N2CCCC2)CC1` [PCM-0216085], the inhibition at 10 µM is -17.8%.

For the compound `NCCC[C@H](N)C(=O)O` [PCM-0216253], the inhibition at 10 µM was -3.4%.

As to `O=c1c2cc(O)c(O)cc2oc2cc(O)c([C@@H]3O[C@H](CO)[C@@H](O)[C@H](O)[C@H]3O)c(O)c12` [PCM-0215004], the inhibition at 10 µM is -14.8%.

For the compound `C[C@H]1CN(C[C@H](Cc2ccccc2)C(=O)NCC(=O)O)CC[C@@]1(C)c1cccc(O)c1` [PCM-0216566], the inhibition at 10 µM is -13.1%.

For the compound `CCN(CC)C(=O)/C(C#N)=C/c1cc(O)c(O)c([N+](=O)[O-])c1` [PCM-0085960], the inhibition at 10 µM came to 38.1%.

Turning to `CN(C)CCC=C1c2ccccc2C(C)(C)c2ccccc21` [PCM-0216044], the inhibition at 10 µM was -10.8%.

With `COc1ccc(-c2cc(=O)c3c(O)cc(O)cc3o2)cc1` [PCM-0216090], the inhibition at 10 µM stood at 16.6%.

As to `C=C1/C(=C\C=C2/CCC[C@]3(C)[C@@H]([C@H](C)/C=C/[C@H](C)C(C)C)CC[C@@H]23)C[C@@H](O)C[C@@H]1O` [PCM-0214626], the inhibition at 10 µM was determined as 4.1%.

On to `CCC(=O)Nc1cccc(Oc2nc(Nc3ccc(N4CCN(C)CC4)cc3OC)ncc2Cl)c1` [PCM-0095726], for which the inhibition at 10 µM is -2.1%.

For `C=C[C@@H]1C[C@]1(NC(=O)[C@@H]1C[C@@H]2CN1C(=O)[C@H](C(C)(C)C)NC(=O)O[C@@H]1C[C@H]1CCCCCc1nc3ccc(OC)cc3nc1O2)C(=O)NS(=O)(=O)C1CC1` [PCM-0214895], the inhibition at 10 µM was -13.2%.

Take `N#Cc1ccc2ncnc(NCCc3ccccc3)c2c1` [PCM-0215834]: the inhibition at 10 µM is -30.3%.

Turning to `OC(CN1CCN(c2cccc(Cl)c2)CC1)C(c1ccccc1)c1ccccc1` (centres unmarked) [PCM-0095352], the inhibition at 10 µM was found to be 37.4%.

Consider `Cc1cc(O)c2c(c1)C(=O)c1cc(O)cc(O)c1C2=O` [PCM-0065315], for which the inhibition at 10 µM turned out to be 69.3%.

Turning to `Cc1cc(C)c(CNC(=O)c2cc(-c3ccc(N4CCN(C)CC4)nc3)cc3c2c(C)cn3C(C)C)c(=O)[nH]1` [PCM-0215513], the inhibition at 10 µM was -6.9%.

Take `CCc1cc(Nc2nc(-c3ccc(-n4cnc(C)c4)c(F)c3)cs2)c(C)cc1C` [PCM-0215986]: the inhibition at 10 µM was found to be 10%.

As to `CC[C@@H]1/C=C(\C)C[C@H](C)C[C@H](OC)[C@H]2O[C@@](O)(C(=O)C(=O)N3CCCC[C@H]3C(=O)O[C@H](/C(C)=C/[C@@H]3CC[C@H](Cl)[C@H](OC)C3)[C@H](C)[C@@H](O)CC1=O)[C@H](C)C[C@@H]2OC` [PCM-0214690], the inhibition at 10 µM was -13.8%.

With `Brc1ccc2[nH]ccc2c1` [PCM-0216166], the inhibition at 10 µM was -11.6%.

Take `O=c1[nH]c(=O)n([C@H]2C[C@H](O)[C@@H](CO)O2)cc1I` [PCM-0085786]: the inhibition at 10 µM is -27.2%.

Take `CCNC(=O)Nc1ccc(-c2nc(N3CCOC[C@@H]3C)c3c(n2)C(C)(C)S(=O)(=O)C3)cc1` [PCM-0215744]: the inhibition at 10 µM was -22.8%.

`N#Cc1ccc(-c2c(-c3ncn[nH]3)sc(N3CCOCC3)c2C#N)c(F)c1` [PCM-0215501]: the inhibition at 10 µM was determined as 19.3%.

For the compound `CCCc1ncc(C[n+]2ccccc2C)c(N)n1` [PCM-0085765], the inhibition at 10 µM is -8.5%.

With `CC1(C)CC[C@]2(C(=O)O)[C@H](O)C[C@]3(C)C(=CC[C@@H]4[C@@]5(C)CC[C@H](O)C(C)(C)[C@@H]5CC[C@]43C)[C@@H]2C1` [PCM-0214984], the inhibition at 10 µM came to 24.8%.

In the case of `CC(C)(C)c1cc(C=C(C#N)C#N)cc(Br)c1O` [PCM-0094972], the inhibition at 10 µM was 57.2%.

On to `CC1=C(C(=O)OC(C)C)C(c2cccc([N+](=O)[O-])c2)C(C(=O)OC2CN(C(c3ccccc3)c3ccccc3)C2)=C(N)N1` (centres unmarked) [PCM-0095544], for which the inhibition at 10 µM is 70%.

With `CCOc1nc2cccc(C(=O)OCc3oc(=O)oc3C)c2n1Cc1ccc(-c2ccccc2-c2noc(=O)[nH]2)cc1` [PCM-0090373], the inhibition at 10 µM was 24.1%.

`CNc1nc(Nc2cn(C(C)(C)C#N)nc2C)ncc1C(F)(F)F` [PCM-0095754]: the inhibition at 10 µM amounted to 7.6%.

Turning to `Cc1ccnc2c1NC(=O)c1cccnc1N2C1CC1` [PCM-0090346], the inhibition at 10 µM is -3.1%.

As for `COc1ccc(-c2cc(=O)c3c(O)c(OC)c(O)cc3o2)cc1OC` [PCM-0214985], the inhibition at 10 µM was 72.4%.

With `O=C1C(Cl)=C(N2CCOCC2)C(=O)N1c1ccc(Cl)c(Cl)c1` [PCM-0215236], the inhibition at 10 µM was -0.8%.

As to `O=c1c(O)c(-c2ccc(O)cc2O)oc2cc(O)cc(O)c12` [PCM-0065541], the inhibition at 10 µM was 10.1%.

On to `COc1cc2ncnc(Nc3ccc(Oc4ccccc4)cc3C)c2cc1OC` [PCM-0215704], for which the inhibition at 10 µM came out at 110%.

As to `CC(=O)Oc1cc(C(F)(F)F)ccc1C(=O)O` [PCM-0065558], the inhibition at 10 µM was -8.6%.

Turning to `O=C(O)c1ccc(C=C2SC(=S)N(c3cccc(C(F)(F)F)c3)C2=O)cc1` [PCM-0095759], the inhibition at 10 µM was 54.1%.

As to `C[C@@H]1O[C@H]2O[C@H]3[C@@H](OC[C@H](O)[C@@H]3O)OC(=O)[C@]34CCC(C)(C)C[C@H]3C3=CC[C@H]5[C@@]6(C)C[C@H](O)[C@H](O[C@@H]7O[C@H](CO)[C@@H](O)[C@H](O)[C@H]7O[C@@H]7OC[C@H](OC(=O)C[C@](C)(O)CC(=O)O[C@@H]1[C@@H](O[C@@H]1OC[C@@H](O)[C@H](O)[C@H]1O)[C@H]2O)[C@H](O)[C@H]7O)[C@@](C)(CO)[C@@H]6CC[C@@]5(C)[C@]3(C)CC4` [PCM-0214951], the inhibition at 10 µM was determined as 6.2%.

On to `Cc1cnc(NC(=O)Nc2cc(Br)c(C)cc2OC[C@@H]2CNCCO2)cn1` [PCM-0095485], for which the inhibition at 10 µM was 7.6%.

On to `Cc1nc(-c2cn3c(n2)-c2ccc(-c4cnn(C(C)(C)C(N)=O)c4)cc2OCC3)n(C(C)C)n1` [PCM-0215518], for which the inhibition at 10 µM came out at 0%.

As for `O=C(CCCCCN1C(=O)c2cccc3cccc(c23)C1=O)NO` [PCM-0095631], the inhibition at 10 µM is 7.7%.

Consider `CCS(=O)(=O)Nc1ccc(Oc2ccc(F)cc2F)c(-c2cn(C)c(=O)c3[nH]ccc23)c1` [PCM-0214596], for which the inhibition at 10 µM was determined as 16.2%.

Consider `CCc1c(O)cc(O)c(C(=O)c2ccc(OCCN3CCOCC3)c(OC)c2)c1CC(=O)N(CCOC)CCOC` [PCM-0095381], for which the inhibition at 10 µM is 2.3%.

For the compound `CCCN=C1S/C(=C\c2ccc(OC[C@H](O)CO)c(Cl)c2)C(=O)N1c1ccccc1C` [PCM-0215632], the inhibition at 10 µM was 9%.

As to `CC(=O)OCC(=O)[C@@]1(O)[C@H](C)C[C@H]2[C@@H]3CCC4=CC(=O)C=C[C@]4(C)[C@@]3(F)[C@@H](O)C[C@@]21C` [PCM-0085852], the inhibition at 10 µM is 1.4%.

Consider `Cn1sc(=O)n(Cc2ccccc2)c1=O` [PCM-0095428], for which the inhibition at 10 µM came out at 4.8%.
